Measurements: US6489304B2, “Hyperstructure-forming carriers” (Hybridon, Inc., priority 1997, dated 2002)

Tests used:
[1] = Tissue distribution of radioactivity after i.v. bolus administration of radiolabeled oligonucleotides; type: in vivo; conditions: rats
Description: (§1) To carry out pharmacokinetic studies, [^35S]-labeled PS-oligonucleotides were synthesized using phosphoramidite chemistry; the intermediate phosphite linkage was oxidized with [^35S8] to incorporate [^35S]. (Agrawal, et al., Synthetic Methods for the Radioisotopic Labeling of Oligonucleotides, in: Antisense Oligonucleotide from Technology to Therapy (Schlingensiepen, ed.) Blackwell, Berlin, pp. 60-77 (1996)). [^35S] was incorporated at the fifth (oligonucleotide HYB0411) or fourth (oligonucleotide HYB0412 and HYB0413) internucleotide linkage.
(§2) A dose of 10 mg/kg of [^35S]-labeled PS-oligonucleotide was administered intravenously (i.v.) to rats (Wistar rats from Charles River, Wilmington, Mass.). Following administration, plasma was collected after 5, 15 and 30 minutes and after 1, 3, 6, 12, 24 and 48 hours. Radioactivity levels were measured to monitor plasma clearance at each time point. Following administration of PS-oligonucleotide, animals (3 rats/group) were sacrificed at 12, 24 and 48 hours. The following tissues were removed and homogenized: muscle, lung, liver, kidney, and spleen. Radioactive levels were measured, to monitor tissue distribution of each of the oligonucleotides. To follow the excretion of PS-oligonucleotides, urine and feces were collected using metabolism cages at 0-3, 3-6, 6-12, 12-24 and 24-48 hour intervals and radioactivity levels were measured using the methods previously reported (Zhang, et al., Biochem. Pharmacol., 49: 929-939 (1995)).
The oligonucleotide-equivalent concentrations of radioactivity in tissues after i.v. bolus administration of radiolabeled oligonucleotides to rats are shown in FIGS. 4-8. […] Significant differences in distribution pattern were found among the three oligonucleotides. […] Oligonucleotide HYB0411 had the highest kidney concentration: 40% higher than that of Oligonucleotides HYB0412 and HYB0413.

[2] = Cumulative urinary and fecal excretion of radioactivity over 48 hours; type: in vivo; conditions: rats, 10 mg/kg i.v., rank among the three oligonucleotides
Protocol: as §2
FIGS. 9 and 10 show the cumulative excretion of urinary and fecal radioactivity over 48 hours following administration of radiolabeled oligonucleotides. Urinary excretion represented the major pathway of elimination. […] Oligonucleotide HYB0411 had the lowest urinary excretion rate and Oligonucleotide HYB0413 had the highest urinary excretion rate. Fecal excretion was a minor pathway of elimination (FIG. 11); Oligonucleotide HYB0413 had the highest fecal excretion rate.

[3] = Plasma pharmacokinetics of [35S]-labeled PS-oligonucleotides after i.v. bolus administration; type: in vivo; conditions: rats, 10 mg/kg i.v.; for maximum plasma concentration (Cmax): radioactivity, compared with Oligonucleotide HYB0413
Description: as §1, §2
FIG. 3 illustrates the plasma concentration-time courses of oligonucleotide equivalents after i.v. bolus administration of radiolabeled oligonucleotides into rats, based on quantification of radioactivity. As shown in previous studies (Agrawal, et al., Clin. Pharm. 28:7-16 (1995); Zhang, et al., Biochem. Pharmacol., 49: 929-939 (1995)), PS-oligonucleotides rapidly clear from the plasma. […] No significant difference in plasma elimination half-life (t½β) was observed.

[4] = Chemical forms of radioactivity in tissues by polyacrylamide gel electrophoresis (in vivo stability); conditions: rats

Substance: 5′-CTCTCGCACCCATCTCTCTCCTTCT-3′ [Oligonucleotide HYB0413, reference compound]
- lung concentration ([1]; 10 mg/kg i.v., compared with HYB0411 and HYB0412): significantly higher concentrations
- tissue concentrations in the tissues examined (in general) ([1]; 10 mg/kg i.v., comparison among the three oligonucleotides): different from those of Oligonucleotide HYB0411 and Oligonucleotide HYB0412
- bone marrow concentration ([1]; 12 hours after dosing, compared with HYB0411 and HYB0412, data not shown): higher concentrations
- fecal excretion rate [2]: highest
- urinary excretion rate [2]: highest

Substance: 5′-CTCTCGCACCCATCTCTCTCCTTCTGGGG-3′ (all phosphorothioate, sugars by position and methylation of C not given here) [Oligonucleotide HYB0411]
- maximum plasma concentration (Cmax) [3]: significantly higher
- distribution half-life (t½α) ([3]; compared with Oligonucleotides HYB0412 and HYB0413): shorter
- liver concentration, higher than Oligonucleotide HYB0413 ([1]; 10 mg/kg i.v.): approximately 50%
- kidney concentration, higher than that of Oligonucleotides HYB0412 and HYB0413 ([1]; 10 mg/kg i.v., highest kidney concentration): 40%
- urinary excretion rate [2]: lowest
- degradation in the kidney ([4]; kidney tissue, PAGE after 5'-post labeling): time-dependent degradation

Substance: 5′-CTCTCGCACCCATCTCTCTCCTTCTGTGT-3′ [Oligonucleotide HYB0412]
- maximum plasma concentration (Cmax) [3]: significantly higher
- liver concentration, higher than Oligonucleotide HYB0413 ([1]; 10 mg/kg i.v.): approximately 50%
- in vivo stability ([4]; b74 compared with Oligonucleotide HYB0411, b75 compared with control oligonucleotide): superior in vivo stability
- absorption ([4]; compared with Oligonucleotide HYB0411): greater absorption
